Laboratory results reported in patent US10323031B2, “Pesticidally active tetracyclic derivatives with sulfur containing substituents” (Syngenta Participations AG, priority 2015, dated 2019).

Key:
Format in all cases: in vivo
[1] = tested on: Plutella xylostella (Diamond Back Moth); test: Plutella xylostella larvae on artificial diet (Example B7); details: 120 h, application rate of 200 ppm, L2 larvae, 5 days after infestation, read-out: effect in at least one of the two categories (mortality or growth inhibition)
Protocol: Plutella xylostella (Diamond Back Moth)
(§1) 24-well microtiter plates with artificial diet were treated with aqueous test solutions prepared from 10,000 ppm DMSO stock solutions by pipetting. After drying, the plates were infested with L2 larvae (10 to 15 per well). The samples were assessed for mortality and growth inhibition in comparison to untreated samples 5 days after infestation.

[2] = tested on: Euschistus heros (Neotropical Brown Stink Bug); test: Euschistus heros nymphs on soybean leaves (Example B3); details: 120 h, application rate of 200 ppm, N2 nymphs, 5 days after infestation, read-out: effect in at least one of the two categories (mortality or growth inhibition)
Protocol: Euschistus heros (Neotropical Brown Stink Bug)
Soybean leaves on agar in 24-well microtiter plates were sprayed with aqueous test solutions prepared from 10,000 ppm DMSO stock solutions. After drying the leaves were infested with N2 nymphs. The samples were assessed for mortality and growth inhibition in comparison to untreated samples 5 days after infestation.

[3] = tested on: Diabrotica Balteata (Corn root worm); test: Diabrotica balteata larvae on maize sprouts (Example B2); details: 96 h, application rate of 200 ppm, L2 larvae, 4 days after infestation, read-out: effect in at least one of the two categories (mortality or growth inhibition)
Protocol: Diabrotica Balteata (Corn root worm)
as §1, with “Maize sprouts placed onto an agar layer in 24-well” for “24-well”, “plates” for “plates with artificial diet”, “spraying.” for “pipetting.”, “(6” for “(10”, “10” for “15”, “4” for “5”

[4] = tested on: Spodoptera littoralis (Egyptian Cotton Leaf Worm); test: Spodoptera littoralis on sprayed cotton leaf discs (Example B8); details: foliar, 72 h, application rate of 200 ppm, L1 larvae, 3 days after infestation, read-out: control (mortality, anti-feeding effect, growth inhibition)
Protocol: (§2) Spodoptera littoralis (Egyptian Cotton Leaf Worm)
Cotton leaf discs were placed onto agar in 24-well microtiter plates and sprayed with aqueous test solutions prepared from 10,000 ppm DMSO stock solutions. After drying the leaf discs were infested with five L1 larvae. The samples were assessed for mortality, anti-feeding effect, and growth inhibition in comparison to untreated samples 3 days after infestation. Control of Spodoptera littoralis by a test sample is given when at least one of the categories mortality, anti-feedant effect, and growth inhibition is higher than the untreated sample.

[5] = tested on: Tetranychus urticae (Two-spotted Spider Mite); test: Tetranychus urticae feeding/contact activity (Example B10); details: foliar, 192 h
Protocol: Tetranychus urticae (Two-spotted Spider Mite): Feeding/Contact Activity
Bean leaf discs on agar in 24-well microtiter plates were sprayed with aqueous test solutions prepared from 10,000 ppm DMSO stock solutions. After drying the leaf discs were infested with a mite population of mixed ages. The samples were assessed for mortality on mixed population (mobile stages) 8 days after infestation.

[6] = tested on: Myzus persicae (Green Peach Aphid); test: Myzus persicae feeding/contact activity (Example B5); details: foliar, 144 h, application rate of 200 ppm, sunflower leaf discs, aphid population of mixed ages, 6 days after infestation
Protocol: Myzus persicae (Green Peach Aphid): Feeding/Contact Activity
Sunflower leaf discs were placed onto agar in a 24-well microtiter plate and sprayed with aqueous test solutions prepared from 10,000 ppm DMSO stock solutions. After drying, the leaf discs were infested with an aphid population of mixed ages. The samples were assessed for mortality 6 days after infestation.

[7] = tested on: Frankliniella occidentalis (Western Flower Thrips); test: Frankliniella occidentalis feeding/contact activity (Example B4); details: foliar, 168 h, application rate of 200 ppm, sunflower leaf discs, population of mixed ages, 7 days after infestation
Protocol: Frankliniella occidentalis (Western Flower Thrips): Feeding/Contact Activity
Sunflower leaf discs were placed on agar in 24-well microtiter plates and sprayed with aqueous test solutions prepared from 10,000 DMSO stock solutions. After drying the leaf discs were infested with a Frankliniella population of mixed ages. The samples were assessed for mortality 7 days after infestation.

[8] = tested on: Spodoptera littoralis (Egyptian Cotton Leaf Worm); test: Spodoptera littoralis, uptake by lettuce roots from agar (Example B9); details: 144 h, test rate of 12.5 ppm, lettuce grown on treated agar, eggs, 6 days after infestation, read-out: effect in at least one of the three categories (mortality, anti-feeding, or growth inhibition)
Excerpt: as §2
Test compounds were applied by pipette from 10,000 ppm DMSO stock solutions into 24-well plates and mixed with agar. Lettuce seeds were placed onto the agar and the multi well plate was closed by another plate which contained also agar. After 7 days the compound was absorbed by the roots and the lettuce grew into the lid plate. The lettuce leaves were then cut off into the lid plate. Spodoptera eggs were pipetted through a plastic stencil onto a humid gel blotting paper and the lid plate was closed with it. The samples were assessed for mortality, anti-feedant effect and growth inhibition in comparison to untreated samples 6 days after infestation.

[9] = tested on: Myzus persicae (Green Peach Aphid); test: Myzus persicae systemic activity (Example B6); details: 144 h, test rate of 24 ppm, roots of pea seedlings in test solution, 6 days
Protocol: Myzus persicae (Green Peach Aphid): Systemic Activity
Roots of pea seedlings infested with an aphid population of mixed ages were placed directly into aqueous test solutions prepared from 10,000 DMSO stock solutions. The samples were assessed for mortality 6 days after placing seedlings into test solutions.

[10] = tested on: Bemisia Tabaci (Cotton White Fly); test: Bemisia tabaci feeding/contact activity (Example B1); details: foliar, 144 h, application rate of 200 ppm, cotton leaf discs, adult white flies, 6 days after incubation
Protocol: Bemisia Tabaci (Cotton White Fly): Feeding/Contact Activity
Cotton leaf discs were placed on agar in 24-well microtiter plates and sprayed with aqueous test solutions prepared from 10,000 ppm DMSO stock solutions. After drying the leaf discs were infested with adult white flies. The samples were checked for mortality 6 days after incubation.

CCSc1cc2ccccc2cc1-c1nc2cc(C(F)(F)F)n(CC)c(=O)c2n1C [Compound A1, 5-ethyl-2-(3-ethylsulfanyl-2-naphthyl)-3-methyl-6-(trifluoromethyl)-3aH-imidazo[4,5-c]pyrid in-4-one]
≥ 80%: percent effect (mortality or growth inhibition) at 200 ppm [1] | percent effect (mortality or growth inhibition) at 200 ppm [2] | percent effect (mortality or growth inhibition) at 200 ppm [3] | mortality at 200 ppm [4]

CCn1c(C(F)(F)F)cc2nc(-c3cc4ccccc4cc3S(=O)(=O)CC)n(C)c2c1=O [Compound A2, 5-ethyl-2-(3-ethylsulfonyl-2-naphthyl)-3-methyl-6-(trifluoromethyl)-6H-im idazo[4,5-c]pyridin-4-one]
≥ 80%: mortality at 200 ppm [5] | mortality at 200 ppm [6] | mortality at 200 ppm [7] | percent effect (mortality or growth inhibition) at 200 ppm [1] | percent effect (mortality or growth inhibition) at 200 ppm [2] | percent effect (mortality, anti-feeding or growth inhibition) at 12.5 ppm [8] | percent effect (mortality or growth inhibition) at 200 ppm [3] | mortality at 200 ppm [4]

CCSc1cc2ccccc2nc1-c1nc2cc(C(F)(F)F)n(CC)c(=O)c2n1C [Compound A3, 5-ethyl-2-(3-ethylsulfanyl-2-quinolyl)-3-methyl-6-(trifluoromethyl)-3aH-imidazo[4,5-c]pyridin-4-one]
≥ 80%: mortality at 200 ppm [6] | percent effect (mortality or growth inhibition) at 200 ppm [1] | percent effect (mortality or growth inhibition) at 200 ppm [3] | mortality at 200 ppm [4]

CCSc1cc2c(cc1-c1nc3cc(C(F)(F)F)n(CC)c(=O)c3n1C)nc(C(F)(F)F)n2C [Compound A5, 5-ethyl-2-[6-ethylsulfanyl-1-methyl-2-(trifluoromethyl)benzimidazol-5-yl]-3-methyl-6-(trifluoromethyl)imidazo[4,5-c]pyridin-4-one]
≥ 80%: percent effect (mortality or growth inhibition) at 200 ppm [2] | mortality at 200 ppm [4]

CCn1c(C(F)(F)F)cc2nc(-c3cc4nc(C(F)(F)F)n(C)c4cc3S(=O)(=O)CC)n(C)c2c1=O [Compound A6, 5-ethyl-2-[6-ethylsulfonyl-1-methyl-2-(trifluoromethyl)benzimidazol-5-yl]-3-methyl-6-(trifluoromethyl)imidazo[4,5-c]pyridin-4-one]
≥ 80%: mortality at 200 ppm [6] | mortality at 200 ppm [7] | percent effect (mortality or growth inhibition) at 200 ppm [1] | percent effect (mortality or growth inhibition) at 200 ppm [2] | percent effect (mortality, anti-feeding or growth inhibition) at 12.5 ppm [8] | mortality at 200 ppm [4] | mortality at 24 ppm [9] | mortality at 200 ppm [10]

CCn1c(C(F)(F)F)cc2nc(-c3cc4ccncc4cc3S(=O)(=O)CC)n(C)c2c1=O [Compound A8, 5-ethyl-2-(7-ethylsulfonyl-6-isoquinolyl)-3-methyl-6-(trifluoromethyl)imidazo[4,5-c]pyridin-4-one]
≥ 80%: percent effect (mortality or growth inhibition) at 200 ppm [1] | percent effect (mortality or growth inhibition) at 200 ppm [2] | percent effect (mortality or growth inhibition) at 200 ppm [3] | mortality at 200 ppm [4]

CCn1c(C(F)(F)F)cc2nc(-c3cc4cc[n+]([O-])cc4cc3S(=O)(=O)CC)n(C)c2c1=O [Compound A9, 5-ethyl-2-(7-ethylsulfonyl-2-oxido-isoquinolin-2-ium-6-yl)-3-methyl-6-(trifluoromethyl)imidazo[4,5-c]pyridin-4-one]
≥ 80%: percent effect (mortality or growth inhibition) at 200 ppm [1] | mortality at 200 ppm [4] | mortality at 24 ppm [9]
